Like-named read-outs stand apart in the source and are kept apart here.
Experiments:
[1] = test system: T. b. brucei (GVR35-VSL2); assay: Meningoencephalic mouse model (stage 2 HAT efficacy model, GVR35) with bioluminescence imaging; type: in vivo
Procedure: The GVR35 mouse CNS model mimics the second (meningoencephalic) stage of African trypanosomiasis. Female CD1 mice (~8 weeks old, from Charles River) were injected intraperitoneally (i.p.) with 3 × 10^4 T. b. brucei (GVR35-VSL2) bloodstream-form parasites. As controls, a group of three untreated mice and another group of three mice treated with diminazene aceturate (DA) were included. […] Mice treated with DA usually relapse after 42 days post-infection. […]
Blood parasitemia was quantified weekly from day 21/22, by microscopy of blood from the tail vein. Mice were imaged for bioluminescence using an in vivo imaging system (IVIS) prior to treatment on day 21/22, and weekly after treatment, as described previously. Briefly, mice, in groups of three, were injected i.p. with 150 mg of D-luciferin (Promega) per kilogram body weight in PBS and imaged after 10 min, using an IVIS Spectrum (PerkinElmer, Waltham, Massachusetts MA, USA). Living Image Software (PerkinElmer) was used for acquisition and analysis of bioluminescence imaging data. Bioluminescence in the same rectangular region of interest (ROI) on whole-body mouse images was quantified and is shown in total flux (photons per second). Images were cropped to the ROIs and composites of images from representative mice are shown. Uncured mice were euthanized within 1 or 2 days of parasite detection in the blood. Cured mice were euthanized between day 92 and 101 post-infection. All the results from the individual experiments were reported as number of mice cured over total number of mice treated. A Kaplan–Meier plot was used for representing the number of mice cured at different treatment doses.

[2] = stage 2 HAT mouse model; cited from earlier work
[3] = test system: T. b. rhodesiense; assay: Growth inhibition of T. b. rhodesiense strains; type: cell-based; conditions: Trypanosoma brucei, mean ± SD
[4] = test system: T. b. gambiense; assay: Growth inhibition of T. b. gambiense strains; type: cell-based; conditions: Trypanosoma brucei, mean ± SD
[5] = test system: T. b. brucei; assay: Growth inhibition of T. b. brucei strains BS221, BS221 (P2 KO), STIB950; type: cell-based; conditions: Trypanosoma brucei, mean ± SD
Procedure: The T. b. brucei strain Lister 427 (bloodstream form) parasites were continuously grown in complete HMI-9 medium supplemented with 10% Serum Plus and 10% heat-inactivated fetal bovine serum (FBS). All other parasite strains were cultured as described elsewhere.
For determination of 50% growth inhibition, all compounds were dissolved in DMSO, and 200 nL of threefold serially diluted compounds were added into solid-bottom 384-well white plates (Greiner Bio-One, Kremsmunster, Austria) by an Echo 555 acoustic liquid-handling system. Forty microliters of 10^4 cells/mL of T. b. brucei parasites was added into each well, and the plates were incubated in a 5% CO2 incubator at 37 °C for 48 h. Viability of parasites were determined by measuring intracellular ATP levels, using CellTiter-Glo (CTG) luminescent cell viability reagent (Promega, Madison, Wisconsin WI, USA). The EC50 values were determined by using GraphPad Prism software. Growth inhibition assays for all clinical isolates were carried out as described earlier. All experiments had two technical replicates and three biological replicates. […]

[6] = test system: T. brucei PSMB4^F24L; assay: Growth inhibition of T. brucei expressing F24L mutant 20S proteasome β4 subunit; type: cell-based, Trypanosoma brucei
Procedure: (§1) For determination of 50% growth inhibition, all compounds were dissolved in DMSO, and 200 nL of threefold serially diluted compounds were added into solid-bottom 384-well white plates (Greiner Bio-One, Kremsmunster, Austria) by an Echo 555 acoustic liquid-handling system. Forty microliters of 10^4 cells/mL of T. b. brucei parasites was added into each well, and the plates were incubated in a 5% CO2 incubator at 37 °C for 48 h. Viability of parasites were determined by measuring intracellular ATP levels, using CellTiter-Glo (CTG) luminescent cell viability reagent (Promega, Madison, Wisconsin WI, USA). The EC50 values were determined by using GraphPad Prism software. Growth inhibition assays for all clinical isolates were carried out as described earlier. All experiments had two technical replicates and three biological replicates. Appropriate statistical tests were used for evaluating significance, and mean ± SEM is represented in the tables.

[7] = test system: T. brucei PSMB4^WT; assay: Growth inhibition of T. brucei expressing wild-type 20S proteasome β4 subunit; type: cell-based; conditions: Trypanosoma brucei, read-out: T. brucei PSMB4^WT EC50
Procedure: as §1

N=C(N)c1ccc(/N=N/Nc2ccc(C(=N)N)cc2)cc1 [Diminazene, diminazene aceturate, reference compound]
% Cured ([1]; 40 mg/kg QD): 0%
Mean Day of Relapse ([1]; 40 mg/kg QD): 42 days post infection
Mice Cured/Total ([1]; 40 mg/kg QD (control compound lacking brain penetration)): 0/3

CSc1ccc(OCc2ncc([N+](=O)[O-])n2C)cc1 [fexinidazole]
Curative dose [2]: 200 mg/kg

N=C(N)c1ccc(OCCCCCOc2ccc(C(=N)N)cc2)cc1 [Pentamidine, reference compound]
EC50 ([3]; RHODESIENSE / STIB900, strain STIB900 Mel^R (melarsoprol-resistant), read-out: T. b. rhodesiense EC50): 217 ± 86 nM
EC50 ([3]; RHODESIENSE / STIB900, strain STIB900 Pent^R (pentamidine-resistant), read-out: T. b. rhodesiense EC50): 203 ± 54 nM
EC50 ([4]; GAMBIENSE / STIB930, strain STIB930, read-out: T. b. gambiense EC50): 1.4 ± 0.9 nM
EC50 ([4]; GAMBIENSE, strain K048, read-out: T. b. gambiense EC50): 33.9 ± 16 nM
EC50 ([4]; GAMBIENSE, strain R130, read-out: T. b. gambiense EC50): 13.5 ± 4 nM
EC50 ([5]; STIB950, strain STIB950, read-out: T. b. brucei EC50): 0.5 ± 0.2 nM
EC50 ([5]; strain BS221 (P2 KO), read-out: T. b. brucei EC50): 3.1 ± 0.4 nM
EC50 ([5]; strain BS221, read-out: T. b. brucei EC50): 0.3 ± 0.1 nM

CC1(C)OB(O)c2cc(NC(=O)c3ccc(F)cc3C(F)(F)F)ccc21 [acoziborole]
Curative dose [2]: 25 mg/kg

CC(C)C[C@H](NC(=O)[C@H](Cc1ccccc1)NC(=O)c1cnccn1)B(O)O [Bortezomib, reference compound]
Shift in growth inhibition concentration, F24L mutant vs wild-type [6]: equipotent
EC50 ([6]; Trypanosoma brucei, read-out: T. brucei PSMB4^F24L EC50): 1.1 ± 0.26 nM
EC50 [7]: 0.94 ± 0.05 nM

Nc1nc(N)nc(Nc2ccc([As]3SCC(CO)S3)cc2)n1 (stereo not shown) [Melarsoprol, reference compound]
EC50 ([3]; RHODESIENSE / STIB900, read-out: T. b. rhodesiense EC50, strain STIB900): 3.9 ± 2 nM
EC50 ([3]; RHODESIENSE / STIB900, read-out: T. b. rhodesiense EC50, strain STIB900 Mel^R (melarsoprol-resistant)): 95.5 ± 24 nM
EC50 ([3]; RHODESIENSE / STIB900, read-out: T. b. rhodesiense EC50, strain STIB900 Pent^R (pentamidine-resistant)): 46.8 ± 19 nM
EC50 ([4]; GAMBIENSE / STIB930, read-out: T. b. gambiense EC50, strain STIB930): 7.1 ± 2.7 nM
EC50 ([4]; GAMBIENSE, read-out: T. b. gambiense EC50, strain K048): 10.2 ± 1.9 nM
EC50 ([4]; GAMBIENSE, read-out: T. b. gambiense EC50, strain R130): 7.7 ± 3.1 nM
EC50 ([5]; STIB950, read-out: T. b. brucei EC50, strain STIB950): 16.9 ± 8.8 nM
EC50 ([5]; read-out: T. b. brucei EC50, strain BS221 (P2 KO)): 37.7 ± 14.8 nM
EC50 ([5]; read-out: T. b. brucei EC50, strain BS221): 4.7 ± 1.8 nM

— publication PMC7157554, “Anti-Trypanosomal Proteasome Inhibitors Cure Hemolymphatic and Meningoencephalic Murine Infection Models of African Trypanosomiasis” (Tropical Medicine and Infectious Disease, 2020)
